This note sets out measurements from publication PMC9289672, “Optimization of Antibacterial Activity in Tibetan Swine α-Helix Peptide TP by Site-Directed Mutagenesis” (Frontiers in Microbiology, 2022).

Where no end group is shown, it is not given here. Where only a bound is given, the exact number is not on record here.

Data set [1] relates to Staphylococcus epidermidis ATCC 12228. The source says: (§1) The bacteria strains Escherichia coli ATCC 25922, Escherichia coli UB1005, Salmonella typhimurium ATCC 14028, Salmonella typhimurium C7731, Pseudomonas aeruginosa ATCC 27853, Pseudomonas aeruginosa PAO1, Staphylococcus aureus ATCC 29213, Staphylococcus aureus ATCC 25923, Methicillin-resistant Staphylococcus aureus (MRSA) 43300, Enterococcus faecalis ATCC 29212, and Staphylococcus epidermidis ATCC 12228 were obtained from the College of Veterinary Medicine, Northeast Agricultural University (Harbin, China).
(§2) The bacteria were cultured overnight in the MHB medium and transferred to the new MHB the next day until the bacteria reached the exponential growth stage. The bacteria were diluted with MHB to 2 × 10^5 CFU/ml. About 50 μl of polypeptide and equal volume of bacterial suspension was added to a 96-well plate to give the final concentration of polypeptide between 1 and 128 μm. The last two columns are negative (MHB only) and positive (bacterial and MHB) controls and incubated at 37°C for 18–24 h. Optical density was measured at an absorbance wavelength of 492 nm using a microplate reader (Tecan GENios F129004, Tecan, Austria). At least three independent measurements were taken. Each trial was conducted two times in parallel. A total of three independent assays were carried out.

Data set [2] deals with Salmonella typhimurium ATCC 14028.
Description: as §1, §2

Data set [3] concerns Escherichia coli ATCC 25922.
Description: as §1, §2

Another data set relates to Escherichia coli UB1005. To be noted: MHB, bacteria diluted to 2 × 10^5 CFU/ml, peptide 1-128 μm, 37°C 18-24 h, OD 492 nm; three independent assays, two in parallel.
Description: as §1, §2

The test system of data set [4] is Enterococcus faecalis ATCC 29212.
Description: as §1, §2

Data set [5] deals with Pseudomonas aeruginosa PAO1.
Description: as §1, §2

In data set [6] the test system is Salmonella typhimurium C7731. Conditions: MHB, bacteria diluted to 2 × 10^5 CFU/ml, peptide 1-128 μm, 37°C 18-24 h, OD 492 nm; three independent assays, two in parallel.
Description: as §1, §2

In data set [7] the test system is Staphylococcus aureus ATCC 25923.
Description: as §1, §2

Data set [8] has as its system Pseudomonas aeruginosa ATCC 27853.
Description: as §1, §2

Data set [9] has as its system Methicillin-resistant Staphylococcus aureus (MRSA) 43300. To be noted: Methicillin-resistant 43300.
Description: as §1, §2

Data set [10] has as its system Staphylococcus aureus ATCC 29213.
Description: as §1, §2

The subject of the next data set is Gram-negative bacteria. Kind of data set: Geometric mean of MIC and therapeutic index. The format is cell-based. To be noted: MHC/GM; 128 μm used when 50% hemolysis not observed at 128 μm. The protocol: as §2
(§3) Trp is a hydrophobic amino acid with aromatic side chains. It is a special amino acid in peptide design. Previous studies have pointed out that introducing amino acids will also bring toxicity while improving activity. […] For further evaluating the cell selectivity of the peptides, we also calculated the SI which defined as the ratio of MHC to the geometric mean (GM) (Dufourc, [2008]).

The next data set has as its system Gram-positive bacteria. Kind of data set: Geometric mean of MIC and therapeutic index. The format is cell-based. To be noted: MHC/GM; 128 μm used when 50% hemolysis not observed at 128 μm. The protocol:
as §2, §3

The subject of the next data set is all strains in Table 2. Kind of data set: Geometric mean of MIC and therapeutic index. The format is cell-based. To be noted: MHC/GM; 128 μm used when 50% hemolysis not observed at 128 μm. The method, then: as §2
Trp is a hydrophobic amino acid with aromatic side chains. It is a special amino acid in peptide design. Previous studies have pointed out that introducing amino acids will also bring toxicity while improving activity. Therefore, at the beginning of the design, we predicted that selecting Trp as hydrophobic amino acid to substitute H-H position would bring certain toxicity to the peptide. Thus, as expected, the introduction of Trp increases the activity and toxicity of these peptides. […] Meanwhile, the virulence of TP(i+4) 1&2&5&6 and TP(i+4) 1&2&6&7 was lower than that of TP(i+4) 1&2&5&7. We infer that the location of hydrophobic centers can effectively reduce peptide toxicity by Trp substitution. For further evaluating the cell selectivity of the peptides, we also calculated the SI which defined as the ratio of MHC to the geometric mean (GM) (Dufourc, [2008]).

The test system of data set [11] is IPEC-J2 and HEK 293T cells.
Description: (§4) The cytotoxicity of each peptide was assessed with IPEC-J12 and HEK 293T cells. […] Each trial was conducted two times in parallel. A total of three independent assays were carried out.
Data set [12] deals with hRBCs (human red blood cells). The experiment in a line: Hemolytic activity. To be noted: three independent assays, two in parallel.
Description: as §4

Regarding ASVVKKWTKGWAKLLK-NH2 [TP(i+4) 1&2&6], the “MIC, S. epidermidis 12228” value in [1] came to 64 µM. Besides, in data set [2], the “MIC, S. typhimurium 14028” value turned out to be 16 µM. In data set [3], the “MIC, E. coli 25922” value was determined as 4 µM. In addition, the “MIC, E. coli UB1005” value in the data set on Escherichia coli UB1005 came to 8 µM. In addition, in data set [4], the “MIC, E. faecalis 29212” value amounted to 128 µM. Moreover, the “MIC, P. aeruginosa PAO1” value in data set [5] was 8 µM. The “MIC, S. typhimurium 7731” value in data set [6] was 32 µM. For the same substance, the “MIC, S. aureus 25923” value in data set [7] stood at 128 µM. In data set [8], the “MIC, P. aeruginosa 27853” value was determined as 32 µM. The “MIC, S. aureus 43300” value in data set [9] worked out at 64 µM. Further, the “MIC, S. aureus 29213” value in [10] turned out to be 64 µM. Besides, the “Therapeutic index (TI), Gram-negative bacteria” value in the data set with Gram-negative bacteria is 10.08. Besides, the “Therapeutic index (TI), Gram-positive bacteria” value in the data set on Gram-positive bacteria turned out to be 1.50. Moreover, the “Therapeutic index (TI) / selectivity index (SI), All” value in the data set on all strains in Table 2 is 3.89. Also, in data set [11], the cell viability is on record as ~ 50%. The “MHC (concentration of peptide that causes hemolysis of 50% of human red blood cells)” value in data set [12] is >128 µM.
For ASVVKKWWKGWWKLLK-NH2 [TP(i+4) 1&2&5&6], the “MIC, S. epidermidis 12228” value in data set [1] is 8 µM. Moreover, the “MIC, S. typhimurium 14028” value in [2] is 2 µM. Also, in data set [3], the “MIC, E. coli 25922” value worked out at 1 µM. Moreover, the “MIC, E. coli UB1005” value in the data set with Escherichia coli UB1005 is 2 µM. In addition, the “MIC, E. faecalis 29212” value in data set [4] was 8 µM. The “MIC, P. aeruginosa PAO1” value in data set [5] turned out to be 4 µM. In addition, in data set [6], the “MIC, S. typhimurium 7731” value worked out at 4 µM. Also, the “MIC, S. aureus 25923” value in [7] amounted to 16 µM. Moreover, in data set [8], the “MIC, P. aeruginosa 27853” value was determined as 4 µM. Also, the “MIC, S. aureus 43300” value in data set [9] stood at 8 µM. Besides, the “MIC, S. aureus 29213” value in data set [10] came to 8 µM. In addition, the “Therapeutic index (TI), Gram-negative bacteria” value with Gram-negative bacteria is 25.40. Moreover, the “Therapeutic index (TI), Gram-positive bacteria” value in the data set with Gram-positive bacteria came out at 6.96. For the same substance, the “Therapeutic index (TI) / selectivity index (SI), All” value in the data set on all strains in Table 2 worked out at 13.30. Also, the “MHC (concentration of peptide that causes hemolysis of 50% of human red blood cells)” value in data set [12] was 64.00 µM.
In the case of ASVVKWLTKWVAKLLK-NH2 [TP(i+4) 1&2&7], the “MIC, S. epidermidis 12228” value in [1] was 4 µM. In addition, in data set [2], the “MIC, S. typhimurium 14028” value came out at 4 µM. For the same substance, the “MIC, E. coli 25922” value in data set [3] is 4 µM. Moreover, the “MIC, E. coli UB1005” value against Escherichia coli UB1005 was determined as 4 µM. Further, the “MIC, E. faecalis 29212” value in data set [4] was determined as 4 µM. Besides, the “MIC, P. aeruginosa PAO1” value in data set [5] turned out to be 4 µM. Also, the “MIC, S. typhimurium 7731” value in data set [6] is 8 µM. Also, in data set [7], the “MIC, S. aureus 25923” value stood at 4 µM. Moreover, the “MIC, P. aeruginosa 27853” value in [8] was determined as 4 µM. The “MIC, S. aureus 43300” value in [9] was 4 µM. In data set [10], the “MIC, S. aureus 29213” value was found to be 2 µM. Moreover, the “Therapeutic index (TI), Gram-negative bacteria” value with Gram-negative bacteria is listed as 14.25. In addition, in the data set with Gram-positive bacteria, the “Therapeutic index (TI), Gram-positive bacteria” value came to 18.39. In addition, in the data set on all strains in Table 2, the “Therapeutic index (TI) / selectivity index (SI), All” value is 16.19. In [12], the “MHC (concentration of peptide that causes hemolysis of 50% of human red blood cells)” value amounted to 64.00 µM.
As to ASVVKWLWKWVWKLLK-NH2 [TP(i+4) 1&2&5&7], in data set [1], the “MIC, S. epidermidis 12228” value stood at 8 µM. For the same substance, the “MIC, S. typhimurium 14028” value in data set [2] came to 32 µM. In addition, in [3], the “MIC, E. coli 25922” value stood at 16 µM. Also, the “MIC, E. coli UB1005” value in the data set with Escherichia coli UB1005 is 16 µM. Besides, the “MIC, E. faecalis 29212” value in data set [4] turned out to be 8 µM. Besides, the “MIC, P. aeruginosa PAO1” value in data set [5] is >128 µM. In addition, the “MIC, S. typhimurium 7731” value in data set [6] was >128 µM. Moreover, the “MIC, S. aureus 25923” value in [7] turned out to be 16 µM. The “MIC, P. aeruginosa 27853” value in [8] was >128 µM. In addition, the “MIC, S. aureus 43300” value in data set [9] is 16 µM. Moreover, the “MIC, S. aureus 29213” value in [10] amounted to 8 µM. In the data set with Gram-negative bacteria, the “Therapeutic index (TI), Gram-negative bacteria” value is 1.26. Moreover, in the data set on Gram-positive bacteria, the “Therapeutic index (TI), Gram-positive bacteria” value is on record as 6.06. Moreover, the “Therapeutic index (TI) / selectivity index (SI), All” value in the data set on all strains in Table 2 is 2.76. The “MHC (concentration of peptide that causes hemolysis of 50% of human red blood cells)” value in data set [12] turned out to be 64.00 µM.
For ASVVKWWTKWWAKLLK-NH2 [TP(i+4) 1&2&6&7], the “MIC, S. epidermidis 12228” value in data set [1] worked out at 2 µM. Also, the “MIC, S. typhimurium 14028” value in [2] was 4 µM. Further, the “MIC, E. coli 25922” value in data set [3] amounted to 4 µM. Besides, the “MIC, E. coli UB1005” value against Escherichia coli UB1005 came out at 4 µM. Further, in [4], the “MIC, E. faecalis 29212” value amounted to 2 µM. For the same substance, in data set [5], the “MIC, P. aeruginosa PAO1” value turned out to be 4 µM. For the same substance, the “MIC, S. typhimurium 7731” value in [6] came to 8 µM. The “MIC, S. aureus 25923” value in data set [7] came out at 2 µM. The “MIC, P. aeruginosa 27853” value in [8] worked out at 8 µM. Further, the “MIC, S. aureus 43300” value in [9] was determined as 4 µM. Also, the “MIC, S. aureus 29213” value in data set [10] stood at 2 µM. Moreover, the “Therapeutic index (TI), Gram-negative bacteria” value in the data set with Gram-negative bacteria was 12.70. Moreover, the “Therapeutic index (TI), Gram-positive bacteria” value with Gram-positive bacteria is 27.83. In the data set on all strains in Table 2, the “Therapeutic index (TI) / selectivity index (SI), All” value worked out at 18.80. Also, the “MHC (concentration of peptide that causes hemolysis of 50% of human red blood cells)” value in [12] was found to be 64.00 µM.
For “ASVVKWWWKWWWKLLK-NH2 [TP(i+4) 1&2&5&6&7]”, the “MIC, S. epidermidis 12228” value in data set [1] is 2 µM. Further, the “MIC, S. typhimurium 14028” value in data set [2] turned out to be 2 µM. For the same substance, the “MIC, E. coli 25922” value in data set [3] was 1 µM. Further, the “MIC, E. coli UB1005” value in the data set with Escherichia coli UB1005 came out at 2 µM. Besides, in [4], the “MIC, E. faecalis 29212” value amounted to 2 µM. Also, the “MIC, P. aeruginosa PAO1” value in [5] came to 4 µM. Besides, the “MIC, S. typhimurium 7731” value in data set [6] was found to be 4 µM. The “MIC, S. aureus 25923” value in data set [7] turned out to be 4 µM. For the same substance, in data set [8], the “MIC, P. aeruginosa 27853” value is 4 µM. The “MIC, S. aureus 43300” value in [9] was determined as 4 µM. In data set [10], the “MIC, S. aureus 29213” value was found to be 2 µM. Further, in the data set with Gram-negative bacteria, the “Therapeutic index (TI), Gram-negative bacteria” value is reported as 3.17. Besides, the “Therapeutic index (TI), Gram-positive bacteria” value with Gram-positive bacteria amounted to 3.03. In addition, the “Therapeutic index (TI) / selectivity index (SI), All” value with all strains in Table 2 is 3.10. Besides, in data set [12], the “MHC (concentration of peptide that causes hemolysis of 50% of human red blood cells)” value was 8.00 µM.
